Results as given in patent US12448368B2, “Indole compounds as androgen receptor modulators” (NIDO BIOSCIENCES, INC., priority 2020, dated 2025).
Like-named read-outs stand apart in the source and are kept apart here.

Biological target: T1, androgen receptor (AR) (Homo sapiens, UniProt P10275, T878A)
T1 construct: LNCaP cells expressing ARR2PB-FireflyLuc and CMV-RenillaLuc; endogenous in cells; host or cells: LNCaP cells carrying ARR2PB-FireflyLuc and CMV-RenillaLuc reporters
T1 sequence (P10275 1-920 T878A): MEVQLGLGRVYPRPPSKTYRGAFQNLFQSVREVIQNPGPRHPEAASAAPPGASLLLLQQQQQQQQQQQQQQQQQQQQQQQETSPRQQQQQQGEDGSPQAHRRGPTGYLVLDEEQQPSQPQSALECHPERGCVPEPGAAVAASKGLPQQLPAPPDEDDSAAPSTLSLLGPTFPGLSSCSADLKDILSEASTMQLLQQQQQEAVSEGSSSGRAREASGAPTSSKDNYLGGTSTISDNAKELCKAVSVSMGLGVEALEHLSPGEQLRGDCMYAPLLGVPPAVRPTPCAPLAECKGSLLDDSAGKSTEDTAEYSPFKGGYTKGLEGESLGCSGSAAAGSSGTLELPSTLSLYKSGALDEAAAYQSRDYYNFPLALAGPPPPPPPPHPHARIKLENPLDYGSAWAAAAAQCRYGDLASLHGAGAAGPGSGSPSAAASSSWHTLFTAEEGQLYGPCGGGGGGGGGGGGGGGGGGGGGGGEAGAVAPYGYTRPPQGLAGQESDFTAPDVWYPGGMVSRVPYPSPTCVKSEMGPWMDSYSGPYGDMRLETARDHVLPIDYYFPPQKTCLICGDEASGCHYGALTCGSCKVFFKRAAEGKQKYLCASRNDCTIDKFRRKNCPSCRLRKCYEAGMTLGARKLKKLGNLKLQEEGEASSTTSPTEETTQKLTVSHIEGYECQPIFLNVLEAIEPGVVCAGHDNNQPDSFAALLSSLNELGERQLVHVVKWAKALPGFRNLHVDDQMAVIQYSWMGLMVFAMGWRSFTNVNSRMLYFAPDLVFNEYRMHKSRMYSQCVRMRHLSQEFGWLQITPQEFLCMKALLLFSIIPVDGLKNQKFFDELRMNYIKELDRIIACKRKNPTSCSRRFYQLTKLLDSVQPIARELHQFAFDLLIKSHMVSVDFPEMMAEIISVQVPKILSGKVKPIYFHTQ
Test: AR reporter assay in LNCaP cells expressing ARR2PB-FireflyLuc and CMV-RenillaLuc, antagonist mode (% remaining activity, IC50)
Format: cell-based
Conditions: 48 h at 37° C., class symbols A-D
Description: LNCaP cells expressing ARR2PB-FireflyLuc and CMV-RenillaLuc were treated with indicated concentrations of test compounds, enzalutamide (negative control), or DHT (positive control)+/−0.5 nM DHT for 48 h at 37° C. […] Remaining activity (antagonist mode) was calculated as % Remaining Activity=100×[(Readsample−LCave)/(HCave−LCave)] where HC is cells treated with 0.5 nM DHT only and LC is cells treated with 10 uM enzalutamide+0.5 nM DHT. Activation (agonist mode) was calculated as % Activation=100×[(ReadSample−LCave)/(HCave−LCave)] where HC is cells treated with 1 uM DHT and LC is cells treated with DMSO. Dose response curves and IC50 values were calculated using non-linear regression analysis in XLfit.
The designation “A” indicates an IC50 value of >10 μM, “B” indicates an IC50 value between 1 μM and 10 μM; “C” indicates an IC50 value between 100 nM and 1 μM; and “D” indicates an IC50 value of less than 100 nM.

IC50 (read-out: IC50) [µM]	SMILES	IC50 (IC50 (μM)) [µM]
0.1 to 1	CN1C(=O)c2ccc(-c3c[nH]c4c(C#N)cccc34)nc2C1(C)C [Compound 156]	–
> 10	COCCN1C(=O)c2ccc(-c3c[nH]c4c(C#N)cccc34)nc2C1(C)C [Compound 157]	–
> 10	CC1(C)c2nc(-c3c[nH]c4c(C#N)cccc34)ccc2C(=O)N1C1CCOC1 (stereo not shown) [Compound 158]	–
0.1 to 1	Cc1nc(-c2c[nH]c3c(C(F)(F)F)cccc23)ccc1N [Compound 159]	–
> 10	CC(=O)c1cccc2c(-c3ccc(N)c(C)n3)c[nH]c12 [Compound 160]	–
1 to 10	Cc1cccc(-c2c[nH]c3cc(C#N)ccc23)n1 [Compound 161]	–
1 to 10	Cc1cccc(-c2c[nH]c3ccc(C#N)cc23)n1 [Compound 162]	–
0.1 to 1	COCCNc1ccc(-c2c[nH]c3c(C#N)cccc23)nc1C [Compound 163]	–
0.1 to 1	Cc1nc(-c2c[nH]c3c(C#N)cccc23)ccc1NC1CCOC1 (stereo not shown) [Compound 164]	–
0.1 to 1	COCCOc1ccc(-c2c[nH]c3c(C#N)cccc23)nc1C [Compound 165]	–
< 0.1	COc1ccc(-c2c[nH]c3c(C#N)cccc23)nc1C [Compound 166]	–
1 to 10	COCCOc1cccc(-c2c[nH]c3c(C#N)cccc23)n1 [Compound 167]	–
> 10	N#Cc1cccc2c(-c3cccc(OC4CCNC4)n3)c[nH]c12 (stereo not shown) [Compound 168]	–
0.1 to 1	COCCOc1nc(-c2c[nH]c3c(C#N)cccc23)ccc1N [Compound 170]	–
< 0.1	N#Cc1cccc2c(-c3cnc(OC(F)F)c(N)c3)c[nH]c12 [Compound 171]	–
< 0.1	N#Cc1cccc2c(-c3cnc(N)c(OC(F)F)n3)c[nH]c12 [Compound 172]	–
1 to 10	CN1C(=O)c2ccc(-c3c[nH]c4c(C#N)cccc34)nc2C1(C)CO (stereo not shown) [Compound 173]	–
1 to 10	N#Cc1cccc2c(-c3cnccn3)c[nH]c12 [Compound 174]	–

IC50 (read-out: IC50) [µM]	SMILES	IC50 (IC50 (μM)) [µM]
0.1 to 1	Cc1cncc(-c2c[nH]c3c(C#N)cccc23)n1 [Compound 175]	–
0.1 to 1	N#Cc1cccc2c(-c3ccccn3)c[nH]c12 [Compound 176]	–
0.1 to 1	COCCN(C)c1cncc(-c2c[nH]c3c(C#N)cccc23)n1 [Compound 177]	–
0.1 to 1	N#Cc1cccc2c(-c3cccc(N4CCC4)n3)c[nH]c12 [Compound 178]	–
0.1 to 1	Cc1nc2ccc(-c3c[nH]c4c(C#N)cccc34)cc2s1 [Compound 179]	–
1 to 10	N#Cc1cccc2c(-c3ccc4nc(N)sc4c3)c[nH]c12 [Compound 180]	–
0.1 to 1	Cc1nc(-c2c[nH]c3c(C#N)cccc23)cnc1NC1CCNC1 (stereo not shown) [Compound 181]	–
0.1 to 1	Cc1nc(-c2c[nH]c3c(C#N)cccc23)cnc1NC1CCN(C)C1 (stereo not shown) [Compound 182]	–
0.1 to 1	Cc1nc(-c2c[nH]c3c(C#N)cccc23)cnc1OC1CCNC1 (stereo not shown) [Compound 183]	–
0.1 to 1	CC1(C)NC(=O)c2ccc(-c3c[nH]c4c(C#N)c(F)ccc34)nc21 [Compound 184]	–
1 to 10	CC1(C)NC(=O)c2ccc(-c3c[nH]c4c(C#N)c(Cl)ccc34)nc21 [Compound 185]	–
0.1 to 1	Cc1nc(-c2c[nH]c3c(C(F)(F)F)cccc23)cnc1N [Compound 186]	–
< 0.1	CC1(C)NC(=O)c2ccc(-c3c[nH]c4c(C(F)(F)F)cccc34)nc21 [Compound 187]	–
0.1 to 1	CN1C(=O)c2ccc(-c3c[nH]c4c(C(F)(F)F)cccc34)nc2C1(C)C [Compound 188]	–
0.1 to 1	Cc1nc(-c2c[nH]c3c(C#N)cccc23)ccc1NCCO [Compound 190]	–
1 to 10	Cc1nc(-c2c[nH]c3c(C#N)cccc23)ccc1NC(C)C(=O)N(C)C (stereo not shown) [Compound 191]	–
0.1 to 1	N#Cc1cccc2c(-c3ccc(N)c(OC(F)F)n3)c[nH]c12 [Compound 192]	–
1 to 10	Cc1nc(-c2c[nH]c3c(C#N)cccc23)cnc1OC1CCN(C)C1 (stereo not shown) [Compound 193]	–

The next lines start with the compound.

SMILES	IC50 (read-out: IC50) [µM]	IC50 (IC50 (μM)) [µM]
Fc1ccc(-c2n[nH]c3ncccc23)nc1 [Compound 116]	1 to 10	–
c1ccc2nc(-c3n[nH]c4ccccc34)ccc2c1 [Compound 117]	–	0.1 to 1
FC(F)(F)c1ccc(-c2c[nH]c3ccccc23)nc1 [Compound 118]	0.1 to 1	–
Fc1ccc(-c2c[nH]c3ccccc23)nc1 [Compound 119]	0.1 to 1	–
N#Cc1cccc2c(-c3ccc4ccc(F)cc4n3)c[nH]c12 [Compound 120]	< 0.1	–
N#Cc1cccc2c(-c3ccc4c(n3)CCCN4)c[nH]c12 [Compound 121]	< 0.1	–
CC1(C)NC(=O)c2ccc(-c3c[nH]c4cc(F)c(F)cc34)nc21 [Compound 122]	0.1 to 1	–
CCOC(=O)c1coc(-c2c[nH]c3c(C)cccc23)n1 [Compound 123]	> 10	–
Cc1nc(-c2c[nH]c3cc(F)c(F)cc23)ccc1N [Compound 124]	1 to 10	–
Cc1nc(-c2c[nH]c3c(C#N)cccc23)ccc1N [Compound 125]	0.1 to 1	–
Fc1ccc(-c2c[nH]c3ncccc23)nc1 [Compound 126]	0.1 to 1	–
N#Cc1cccc2c(-c3ccc(F)cn3)c[nH]c12 [Compound 127]	< 0.1	–
c1cnc2[nH]cc(-c3ccc(C4CC4)cn3)c2c1 [Compound 128]	0.1 to 1	–
c1cnc2[nH]cc(-c3ccc(C4COC4)cn3)c2c1 [Compound 129]	1 to 10	–
Cc1nc(-c2c[nH]c3c(C#N)cc(F)cc23)ccc1N [Compound 130]	0.1 to 1	–
Cc1nc(-c2c[nH]c3c(C#N)cc(F)cc23)ccc1F [Compound 131]	< 0.1	–
N#Cc1cccc2c(-c3ccc(N)cn3)c[nH]c12 [Compound 132]	1 to 10	–
Cc1cccc(-c2c[nH]c3c(C#N)cccc23)n1 [Compound 133]	0.1 to 1	–
Cc1nc(-c2c[nH]c3cccnc23)ccc1N [Compound 134]	> 10	–
Cc1nc(-c2c[nH]c3ncccc23)ccc1N [Compound 135]	1 to 10	–

SMILES	IC50 (read-out: IC50) [µM]	IC50 (IC50 (μM)) [µM]
CC1NC(=O)c2ccc(-c3c[nH]c4cc(F)c(F)cc34)nc21 (stereo not shown) [Compound 136]	0.1 to 1	–
N#Cc1cccc2c(-c3ccc(N)c(Cl)n3)c[nH]c12 [Compound 137]	0.1 to 1	–
Cc1cc(-c2c[nH]c3c(C#N)cccc23)ncc1N [Compound 138]	1 to 10	–
N#Cc1cccc2c(-c3ccc(N)c(C4CC4)n3)c[nH]c12 [Compound 139]	< 0.1	–
Cc1nc(-c2c[nH]c3c(C)cccc23)ccc1N [Compound 140]	1 to 10	–
Cc1nc(-c2c[nH]c3c(F)cccc23)ccc1N [Compound 141]	1 to 10	–
Cc1nc(-c2c[nH]c3c(C4CC4)cccc23)ccc1N [Compound 142]	1 to 10	–
CC1(C)NC(=O)c2ccc(-c3c[nH]c4cc(F)c(F)cc34)cc21 [Compound 143]	1 to 10	–
Cc1nc(-c2c[nH]c3c(-c4nnco4)cccc23)ccc1N [Compound 144]	> 10	–
CNC(=O)c1cccc2c(-c3ccc(N)c(C)n3)c[nH]c12 [Compound 145]	> 10	–
CNc1ccc(-c2c[nH]c3c(C#N)cccc23)nc1C [Compound 146]	< 0.1	–
CCNc1ccc(-c2c[nH]c3c(C#N)cccc23)nc1C [Compound 147]	0.1 to 1	–
Cc1nc(-c2c[nH]c3c(C#N)cccc23)ccc1N(C)C [Compound 148]	< 0.1	–
Cc1nc(-c2c[nH]c3c(C#N)cccc23)cnc1N [Compound 149]	0.1 to 1	–
Cc1ccc2c(-c3ccc(N)c(C)n3)c[nH]c2c1C#N [Compound 150]	1 to 10	–
Cc1nc(-c2c[nH]c3c(C#N)c(Cl)ccc23)ccc1N [Compound 151]	0.1 to 1	–
Cc1cc(C#N)c2[nH]cc(-c3ccc(N)c(C)n3)c2c1 [Compound 152]	1 to 10	–
Cc1nc(-c2c[nH]c3c(C#N)cc(Cl)cc23)ccc1N [Compound 153]	1 to 10	–
NCc1cc(F)cc2c(-c3ccc4ncccc4n3)c[nH]c12 [Compound 154]	0.1 to 1	–
Cc1nc(-c2c(C)[nH]c3c(C#N)cccc23)ccc1N [Compound 155]	> 10	–
